Laboratory results taken from patent US9758486B1 (priority 2017, dated 2017).
Where two headings read alike, the source gives them in different places.

How the values were obtained:
[1] = tested on: human kidney cancer cells (A-498); assay: MTT tumor cell proliferation inhibition test, A-498; assay type: cell-based; conditions: read-out: Half Inhibitory Concentration IC50, A-498
Protocol: (§1) The compounds of the present invention were subjected to tumor cell proliferation inhibition test, and conventional MTT method was used.
(§2) Cell lines: human kidney cancer cells (A-498), human lung cancer cells (A-549), human brain astrocytoma cells (U-251). The culture medium was DMEM+15% NBS+double antibody.
(§3) Sample solution preparation: after dissolving with DMSO (Merck), PBS (−) was added to obtain 100 μmol/L solution or homogeneous suspension. The solution was diluted with PBS (−) in DMSO to a final concentration of 0.1, 1, 10, 20, 40, 60, 80, 100 μmol/L.
(§4) Gossypol was used as control solution, prepared under the same condition.
(§5) Cell culture: adherent growth Tumor cells were cultured in 1640 medium containing 10% inactivated neonatal bovine serum and penicillin, streptomycin (1 million U/L), placed in carbon dioxide incubator at 37° C., 5% CO2, and saturated humidity. Cells were treated serially passaged 2-3 times. The first culture was washed with PBS 2 times, and digested with trypsin. Fresh culture medium was added evenly, cells were adjusted to a appropriate concentration and transferred into a new culture flask. Cell in an exponential phase were chosen for the tests.
(§6) MTT Assay for Cell Viability and IC50 Determination:
(§7) Experimental Principle: Living cells mitochondria in the dehydrogenase can reduce yellow MTT to water-insoluble blue-violet product MT (MTT formazan), deposited in the cells. The amount of production is proportional to the number of living cells. […] DMSO can dissolve blue violet crystals, and the color depth is proportional to the amount contained, so the absorbance measured by the microplate reader can reflect the cell viability.
(§8) Methods: The exponential phase cells were digested and counted and seeded in 96-well plates at a density of 2×10^4/mL at 100 μl per well. After 24 hours of incubation, the cells to be tested were treated with 0.1, 1, 10, 20, 40, 60, 80, 100 μmol/L of the compounds. Each experimental group had 5 wells in each concentration, and the culture medium containing 0.4% DMSO was used as control. After 48 hours, the supernatant was discarded, and 100 μl of MTT ((2-(4,5-dimethyl-2-thiazolyl)-3,5-diphenyl-2H-[…]) (1 mg/mL) was added to each well. After another 4 hours, the supernatant was discarded, and 100 μl of DMSO was added to each well. After mixing, the absorbance was measured at 570 nm using a microplate reader. An IC50 calculation software was used to determine the half inhibitory concentration (IC50).

[2] = tested on: human lung cancer cells (A-549); assay: MTT tumor cell proliferation inhibition test, A-549; assay type: cell-based; conditions: read-out: Half Inhibitory Concentration IC50, A-549
Protocol: as §1, §2, §3, §4, §5, §6, §7, §8

[3] = tested on: human brain astrocytoma cells (U-251); assay: MTT tumor cell proliferation inhibition test, U-251; assay type: cell-based; conditions: read-out: Half Inhibitory Concentration IC50, U-251
Protocol: as §1, §2, §3, §4, §5, §6, §7, §8

[4] = tested on: tumor cells (A-498, A-549, U-251); assay: MTT tumor cell proliferation inhibition test, summary in words over the cell lines tested; assay type: cell-based, human; conditions: summary of Table 1
Protocol: as §1, §2, §8
These compounds can be used for the study of antitumor agents.

[5] = A498, A-498 cells, MTT, 48 hours treatment
[6] = A549, A-549 cells, MTT, 48 hours treatment
[7] = U-251 cells, MTT, 48 hours treatment

Row | Compound | IC50 [1, 5] [µM] | IC50 [2, 6] [µM] | IC50 [3, 7] [µM] | IC50 ([3]; U-251, 48 h) [µM] | IC50 ([1]; A498, 48 h) [µM] | IC50 ([2]; A549, 48 h) [µM] | antitumor activities (statement in words) [4]
1 | CC1=NN(c2ccc(C)cc2)C(=O)/C1=C\c1c(O)c(O)c(C(C)C)c2cc(C)c(-c3c(C)cc4c(C(C)C)c(O)c(O)c(C=O)c4c3O)c(O)c12 [B, (Z)-1,1′,6,6′,7,7′-hexahydroxy-5,5′-diisopropyl-3,3′-dimethyl-8′-((3-methyl-5-oxo-1-(p-tolyl)-1H-pyrazol-4(5H)-ylidene)methyl)-[2,2′-binaphthalene]-8-carbaldehyde] | 37.6 ± 2.23 | 78.4 ± 2.65 | – | – | – | – | –
2 | COc1ccc(N2N=C(C)/C(=C/c3c(O)c(O)c(C(C)C)c4cc(C)c(-c5c(C)cc6c(C(C)C)c(O)c(O)c(C=O)c6c5O)c(O)c34)C2=O)cc1 [C] | 25.3 ± 0.95 | > 100 | > 100 | – | – | – | –
3 | CC1=NN(c2ccccc2)C(=O)/C1=C\c1c(O)c(O)c(C(C)C)c2cc(C)c(-c3c(C)cc4c(C(C)C)c(O)c(O)c(C=O)c4c3O)c(O)c12 [Compound A, (Z)-1,1′,6,6′,7,7′-hexahydroxy-5,5′-diisopropyl-3,3′-dimethyl-8′-((3-methyl-5-oxo-1-phenyl-1H-pyrazol-4(5H)-ylidene)methyl)-[2,2′-binaphthalene]-8-carbaldehyde] | – | – | – | 10.4 ± 0.67 | 11.4 ± 1.03 | 10.5 ± 0.92 | good antitumor activities in all three cell lines tested
4 | C=CC1=NN(c2ccc(C)cc2)C(=O)/C1=C\c1c(O)c(O)c(C(C)C)c2cc(C)c(-c3c(C)cc4c(C(C)C)c(O)c(O)c(C=O)c4c3O)c(O)c12 [Compound I, (Z)-1,1′,6,6′,7,7′-hexahydroxy-5,5′-diisopropyl-3,3′-dimethyl-8′-((5-oxo-1-(p-tolyl)-3-vinyl-1H-pyrazol-4(5H)-ylidene)methyl)-[2,2′-binaphthalene]-8-carbaldehyde] | 11.7 ± 0.65 | 18.1 ± 0.72 | 20.7 ± 0.84 | – | – | – | good antitumor activities in different cell lines
5 | CC1=NN(c2ccc(Cl)cc2)C(=O)/C1=C\c1c(O)c(O)c(C(C)C)c2cc(C)c(-c3c(C)cc4c(C(C)C)c(O)c(O)c(C=O)c4c3O)c(O)c12 [D, (Z)-8′-((1-(4-chlorophenyl)-3-methyl-5-oxo-1H-pyrazol-4(5H)-ylidene)methyl)-1,1′,6,6′,7,7′-hexahydroxy-5,5′-diisopropyl-3,3′-dimethyl-[2,2′-binaphthalene]-8-carbaldehyde] | 24.3 ± 0.91 | 36.9 ± 0.83 | > 100 | – | – | – | –
6 | COC1=NN(c2ccccc2)C(=O)/C1=C\c1c(O)c(O)c(C(C)C)c2cc(C)c(-c3c(C)cc4c(C(C)C)c(O)c(O)c(C=O)c4c3O)c(O)c12 [E, (Z)-1,1′,6,6′,7,7′-hexahydroxy-5,5′-diisopropyl-8′-((3-methoxy-5-oxo-1-phenyl-1H-pyrazol-4(5H)-ylidene)methyl)-3,3′-dimethyl-[2,2′-binaphthalene]-8-carbaldehyde] | 17.8 ± 0.95 | 26.7 ± 1.12 | 26.1 ± 1.8 | – | – | – | good antitumor activities in different cell lines
7 | COC1=NN(c2ccc(OC)cc2)C(=O)/C1=C\c1c(O)c(O)c(C(C)C)c2cc(C)c(-c3c(C)cc4c(C(C)C)c(O)c(O)c(C=O)c4c3O)c(O)c12 [F] | > 100 | 65.9 ± 2.84 | 58.2 ± 2.1 | – | – | – | –
8 | COC1=NN(c2ccc(Cl)cc2)C(=O)/C1=C\c1c(O)c(O)c(C(C)C)c2cc(C)c(-c3c(C)cc4c(C(C)C)c(O)c(O)c(C=O)c4c3O)c(O)c12 [G, (Z)-8′-((1-(4-chlorophenyl)-3-methoxy-5-oxo-1H-pyrazol-4(5H)-ylidene)methyl)-1,1′,6,6′,7,7′-hexahydroxy-5,5′-diisopropyl-3,3′-dimethyl-[2,2′-binaphthalene]-8-carbaldehyde] | 26.5 ± 1.02 | 43.4 ± 1.21 | > 100 | – | – | – | good antitumor activities in different cell lines
9 | Cc1cc2c(C(C)C)c(O)c(O)c(C=O)c2c(O)c1-c1c(C)cc2c(C(C)C)c(O)c(O)c(C=O)c2c1O [Gossypol] | 11.3 ± 0.28 | 14.9 ± 0.64 | 20.2 ± 1.3 | – | – | – | –
10 | C=CC1=NN(c2ccccc2)C(=O)/C1=C\c1c(O)c(O)c(C(C)C)c2cc(C)c(-c3c(C)cc4c(C(C)C)c(O)c(O)c(C=O)c4c3O)c(O)c12 [H, (Z)-1,1′,6,6′,7,7′-hexahydroxy-5,5′-diisopropyl-3,3′-dimethyl-8′-((5-oxo-1-phenyl-3-vinyl-1H-pyrazol-4(5H)-ylidene)methyl)-[2,2′-binaphthalene]-8-carbaldehyde] | > 100 | > 100 | 78.7 ± 2.02 | – | – | – | –
11 | C=CC1=NN(c2ccc(Cl)cc2)C(=O)/C1=C\c1c(O)c(O)c(C(C)C)c2cc(C)c(-c3c(C)cc4c(C(C)C)c(O)c(O)c(C=O)c4c3O)c(O)c12 [J, (Z)-8′-((1-(4-chlorophenyl)-5-oxo-3-vinyl-1H-pyrazol-4(5H)-ylidene)methyl)-1,1′,6,6′,7,7′-hexahydroxy-5,5′-diisopropyl-3,3′-dimethyl-[2,2′-binaphthalene]-8-carbaldehyde] | 13.8 ± 0.85 | 12.7 ± 1.12 | 26.2 ± 1.15 | – | – | – | good antitumor activities in different cell lines
12 | CC1=NN(c2c(C)cccc2Cl)C(=O)/C1=C\c1c(O)c(O)c(C(C)C)c2cc(C)c(-c3c(C)cc4c(C(C)C)c(O)c(O)c(C=O)c4c3O)c(O)c12 [K, (Z)-8′-((1-(2-chloro-6-methylphenyl)-3-methyl-5-oxo-1H-pyrazol-4(5H)-ylidene)methyl)-1,1′,6,6′,7,7′-hexahydroxy-5,5′-diisopropyl-3,3′-dimethyl-[2,2′-binaphthalene]-8-carbaldehyde] | – | – | – | 11.5 ± 1.32 | > 100 | > 100 | –
13 | C=CC1=NN(c2c(C)cccc2Cl)C(=O)/C1=C\c1c(O)c(O)c(C(C)C)c2cc(C)c(-c3c(C)cc4c(C(C)C)c(O)c(O)c(C=O)c4c3O)c(O)c12 [L, (Z)-8′-((1-(2-chloro-6-methylphenyl)-5-oxo-3-vinyl-1H-pyrazol-4(5H)-ylidene)methyl)-1,1′,6,6′,7,7′-hexahydroxy-5,5′-diisopropyl-3,3′-dimethyl-[2,2′-binaphthalene]-8-carbaldehyde] | > 100 | > 100 | > 100 | – | – | – | –
